Experimental data: ChEMBL document CHEMBL5113538, “Discovery of Novel Allosteric EGFR L858R Inhibitors for the Treatment of Non-Small-Cell Lung Cancer as a Single Agent or in Combination with Osimertinib” (J Med Chem, 2022)

Test system: not listed separately
Assay: Intrinsic clearance in mouse liver hepatocytes measured per 10^6 cells incubated upto 2 hrs by LC-MS/MS analysis
Assay type: ADME, cell-based, Hepatocyte
Details: read-out: CLH

Compound | hepatocyte CLint [µL/min/1e6 cells]
O=C(Nc1nccs1)C(c1ncn2c1CCC2)N1Cc2c(Cl)cccc2C1=O (configuration not stated) | 68
O=C(Nc1nccs1)C(c1ncn2c1CCC2)N1Cc2c(F)cc(C#Cc3ccc(CN4CCC(O)CC4)cc3)cc2C1=O (configuration not stated) | 3.6
O=C(Nc1nccs1)C(c1ncn2c1CCC2)N1Cc2c(cc(C#Cc3ccc(CN4CCC(CO)CC4)cc3)cc2C(F)(F)F)C1=O (configuration not stated) | 50
O=C(Nc1nccs1)C(c1cc(F)ccc1O)N1Cc2ccccc2C1=O (configuration not stated) | 27
O=C(Nc1nccs1)C(c1ncn2c1CCC2)N1Cc2ccc(C#Cc3ccc(CN4CCCCC4)cc3)cc2C1=O (configuration not stated) | 6
CC1(C)CCc2c(C(C(=O)Nc3nccs3)N3Cc4c(cc(C#Cc5ccc(CN6CCC(CO)CC6)cc5)cc4C(F)F)C3=O)ncn21 (configuration not stated) | 19
O=C(Nc1nccs1)C(c1ncn2c1CCC2)N1Cc2c(cc(C#Cc3ccc(CN4CCC(CO)CC4)cc3)cc2C(F)F)C1=O (configuration not stated) | 33

Test system: not listed separately
Assay: Intrinsic clearance in human liver hepatocytes measured per 10^6 cells incubated upto 2 hrs by LC-MS/MS analysis
Assay type: ADME, cell-based, Hepatocyte
Details: read-out: CLH

Compound | hepatocyte CLint [µL/min/1e6 cells]
O=C(Nc1nccs1)C(c1ncn2c1CCC2)N1Cc2c(Cl)cccc2C1=O (configuration not stated) | 7
O=C(Nc1nccs1)C(c1ncn2c1CCC2)N1Cc2c(F)cc(C#Cc3ccc(CN4CCC(O)CC4)cc3)cc2C1=O (configuration not stated) | 1.6
O=C(Nc1nccs1)C(c1ncn2c1CCC2)N1Cc2c(cc(C#Cc3ccc(CN4CCC(CO)CC4)cc3)cc2C(F)(F)F)C1=O (configuration not stated) | 3.3
O=C(Nc1nccs1)C(c1cc(F)ccc1O)N1Cc2ccccc2C1=O (configuration not stated) | 67
O=C(Nc1nccs1)C(c1ncn2c1CCC2)N1Cc2ccc(C#Cc3ccc(CN4CCCCC4)cc3)cc2C1=O (configuration not stated) | 6.5
CC1(C)CCc2c(C(C(=O)Nc3nccs3)N3Cc4c(cc(C#Cc5ccc(CN6CCC(CO)CC6)cc5)cc4C(F)F)C3=O)ncn21 (configuration not stated) | 5
O=C(Nc1nccs1)C(c1ncn2c1CCC2)N1Cc2c(cc(C#Cc3ccc(CN4CCC(CO)CC4)cc3)cc2C(F)F)C1=O (configuration not stated) | 3.1

Test system: BaF3
Assay: Cytotoxicity against mouse BaF3 cells expressing EGFR L858R/T790M/C797S mutant assessed as reduction in cell viability measured after 72 hrs by cell titre glo luminescence assay
Assay type: functional, cell-based
Details: BaF3, 72 h

Compound | IC50 [nM]
O=C(Nc1nccs1)C(c1ncn2c1CCC2)N1Cc2c(F)cc(C#Cc3ccc(CN4CCC(CO)CC4)cc3)cc2C1=O (configuration not stated) | 1
Nc1ccc(C#Cc2cc(F)c3c(c2)C(=O)N(C(C(=O)Nc2nccs2)c2ncn4c2CCC4)C3)cn1 (configuration not stated) | 200
O=C(Nc1nccs1)C(c1ncn2c1CCC2)n1cc2c(Cl)cc(-c3ccc(N4CCOCC4)cc3)c(Cl)c2n1 (configuration not stated) | 31
Cc1c(C#Cc2ccc(CN3CCC(CO)CC3)cc2)cc(C(F)F)c2cn(C(C(=O)Nc3nccs3)c3ncn4c3CCC4)nc12 (configuration not stated) | 1
CCN1CCN(c2ccc(-c3cc(Cl)c4cn(C(C(=O)Nc5nccs5)c5ncn6c5CCC6)nc4c3Cl)cc2)CC1 (configuration not stated) | 13
O=C(Nc1nccs1)C(c1ncn2c1CCC2)N1Cc2c(F)cc(C#Cc3ccc(CN4CCC(O)CC4)cc3)cc2C1=O (configuration not stated) | 5
O=C(Nc1nccs1)C(c1ncn2c1CCC2)N1Cc2c(cc(C#Cc3ccc(CN4CCC(CO)CC4)cc3)cc2C(F)(F)F)C1=O (configuration not stated) | 0.5
CCN1CCN(c2ccc(-c3cc(F)c4cn(C(C(=O)Nc5nccs5)c5ncn6c5CCC6)nc4c3)cc2)CC1 (configuration not stated) | 13
O=C(Nc1nccs1)C(c1ncn2c1CCC2)N1Cc2ccc(C#Cc3cccnc3)cc2C1=O (configuration not stated) | 1200
O=C(Nc1nccs1)C(c1ncn2c1CCC2)N1Cc2ccc(C#Cc3ccc(CN4CCCCC4)cc3)cc2C1=O (configuration not stated) | 17
CC1(C)CCc2c(C(C(=O)Nc3nccs3)N3Cc4c(cc(C#Cc5ccc(CN6CCC(CO)CC6)cc5)cc4C(F)F)C3=O)ncn21 (configuration not stated) | 1
O=C(Nc1nccs1)C(c1ncn2c1CCC2)N1Cc2c(cc(C#Cc3ccc(CN4CCC(CO)CC4)cc3)cc2C(F)F)C1=O (configuration not stated) | 1

Same assay, conditions: BaF3, time 72 hrs

Compound | IC90 [nM]
O=C(Nc1nccs1)C(c1ncn2c1CCC2)N1Cc2c(F)cc(C#Cc3ccc(CN4CCC(CO)CC4)cc3)cc2C1=O (configuration not stated) | 2
Nc1ccc(C#Cc2cc(F)c3c(c2)C(=O)N(C(C(=O)Nc2nccs2)c2ncn4c2CCC4)C3)cn1 (configuration not stated) | 490
O=C(Nc1nccs1)C(c1ncn2c1CCC2)n1cc2c(Cl)cc(-c3ccc(N4CCOCC4)cc3)c(Cl)c2n1 (configuration not stated) | 74
CCN1CCN(c2ccc(-c3cc(Cl)c4cn(C(C(=O)Nc5nccs5)c5ncn6c5CCC6)nc4c3Cl)cc2)CC1 (configuration not stated) | 33
O=C(Nc1nccs1)C(c1ncn2c1CCC2)N1Cc2c(F)cc(C#Cc3ccc(CN4CCC(O)CC4)cc3)cc2C1=O (configuration not stated) | 13
O=C(Nc1nccs1)C(c1ncn2c1CCC2)N1Cc2c(cc(C#Cc3ccc(CN4CCC(CO)CC4)cc3)cc2C(F)(F)F)C1=O (configuration not stated) | 1
CCN1CCN(c2ccc(-c3cc(F)c4cn(C(C(=O)Nc5nccs5)c5ncn6c5CCC6)nc4c3)cc2)CC1 (configuration not stated) | 30
O=C(Nc1nccs1)C(c1ncn2c1CCC2)N1Cc2ccc(C#Cc3cccnc3)cc2C1=O (configuration not stated) | 3000
O=C(Nc1nccs1)C(c1ncn2c1CCC2)N1Cc2ccc(C#Cc3ccc(CN4CCCCC4)cc3)cc2C1=O (configuration not stated) | 42
CC1(C)CCc2c(C(C(=O)Nc3nccs3)N3Cc4c(cc(C#Cc5ccc(CN6CCC(CO)CC6)cc5)cc4C(F)F)C3=O)ncn21 (configuration not stated) | 3
O=C(Nc1nccs1)C(c1ncn2c1CCC2)N1Cc2c(cc(C#Cc3ccc(CN4CCC(CO)CC4)cc3)cc2C(F)F)C1=O (configuration not stated) | 3

Test system: BaF3
Assay: Cytotoxicity against mouse BaF3 cells harboring EGFR L858R/C797S mutant assessed as reduction in cell viability measured after 72 hrs by cell titre glo luminescence assay
Assay type: functional, cell-based
Details: BaF3, 72 h

Compound | IC50 [nM]
O=C(Nc1nccs1)C(c1ncn2c1CCC2)N1Cc2c(F)cc(C#Cc3ccc(CN4CCC(CO)CC4)cc3)cc2C1=O (configuration not stated) | 16
Nc1ccc(C#Cc2cc(F)c3c(c2)C(=O)N(C(C(=O)Nc2nccs2)c2ncn4c2CCC4)C3)cn1 (configuration not stated) | > 10000
O=C(Nc1nccs1)C(c1ncn2c1CCC2)n1cc2c(Cl)cc(-c3ccc(N4CCOCC4)cc3)c(Cl)c2n1 (configuration not stated) | 46
Cc1c(C#Cc2ccc(CN3CCC(CO)CC3)cc2)cc(C(F)F)c2cn(C(C(=O)Nc3nccs3)c3ncn4c3CCC4)nc12 (configuration not stated) | 2
CCN1CCN(c2ccc(-c3cc(Cl)c4cn(C(C(=O)Nc5nccs5)c5ncn6c5CCC6)nc4c3Cl)cc2)CC1 (configuration not stated) | 26
O=C(Nc1nccs1)C(c1ncn2c1CCC2)N1Cc2c(F)cc(C#Cc3ccc(CN4CCC(O)CC4)cc3)cc2C1=O (configuration not stated) | 72
O=C(Nc1nccs1)C(c1ncn2c1CCC2)N1Cc2c(cc(C#Cc3ccc(CN4CCC(CO)CC4)cc3)cc2C(F)(F)F)C1=O (configuration not stated) | 2
CCN1CCN(c2ccc(-c3cc(F)c4cn(C(C(=O)Nc5nccs5)c5ncn6c5CCC6)nc4c3)cc2)CC1 (configuration not stated) | 650
O=C(Nc1nccs1)C(c1ncn2c1CCC2)N1Cc2ccc(C#Cc3cccnc3)cc2C1=O (configuration not stated) | > 10000
O=C(Nc1nccs1)C(c1ncn2c1CCC2)N1Cc2ccc(C#Cc3ccc(CN4CCCCC4)cc3)cc2C1=O (configuration not stated) | 1300
CC1(C)CCc2c(C(C(=O)Nc3nccs3)N3Cc4c(cc(C#Cc5ccc(CN6CCC(CO)CC6)cc5)cc4C(F)F)C3=O)ncn21 (configuration not stated) | 1
O=C(Nc1nccs1)C(c1ncn2c1CCC2)N1Cc2c(cc(C#Cc3ccc(CN4CCC(CO)CC4)cc3)cc2C(F)F)C1=O (configuration not stated) | 4

Same assay, conditions: BaF3, time 72 hrs

Compound | IC90 [nM]
O=C(Nc1nccs1)C(c1ncn2c1CCC2)N1Cc2c(F)cc(C#Cc3ccc(CN4CCC(CO)CC4)cc3)cc2C1=O (configuration not stated) | 47
Nc1ccc(C#Cc2cc(F)c3c(c2)C(=O)N(C(C(=O)Nc2nccs2)c2ncn4c2CCC4)C3)cn1 (configuration not stated) | > 10000
O=C(Nc1nccs1)C(c1ncn2c1CCC2)n1cc2c(Cl)cc(-c3ccc(N4CCOCC4)cc3)c(Cl)c2n1 (configuration not stated) | 126
CCN1CCN(c2ccc(-c3cc(Cl)c4cn(C(C(=O)Nc5nccs5)c5ncn6c5CCC6)nc4c3Cl)cc2)CC1 (configuration not stated) | 70
O=C(Nc1nccs1)C(c1ncn2c1CCC2)N1Cc2c(F)cc(C#Cc3ccc(CN4CCC(O)CC4)cc3)cc2C1=O (configuration not stated) | 285
O=C(Nc1nccs1)C(c1ncn2c1CCC2)N1Cc2c(cc(C#Cc3ccc(CN4CCC(CO)CC4)cc3)cc2C(F)(F)F)C1=O (configuration not stated) | 5
CCN1CCN(c2ccc(-c3cc(F)c4cn(C(C(=O)Nc5nccs5)c5ncn6c5CCC6)nc4c3)cc2)CC1 (configuration not stated) | 2600
O=C(Nc1nccs1)C(c1ncn2c1CCC2)N1Cc2ccc(C#Cc3cccnc3)cc2C1=O (configuration not stated) | > 10000
O=C(Nc1nccs1)C(c1ncn2c1CCC2)N1Cc2ccc(C#Cc3ccc(CN4CCCCC4)cc3)cc2C1=O (configuration not stated) | 3100
CC1(C)CCc2c(C(C(=O)Nc3nccs3)N3Cc4c(cc(C#Cc5ccc(CN6CCC(CO)CC6)cc5)cc4C(F)F)C3=O)ncn21 (configuration not stated) | 2
O=C(Nc1nccs1)C(c1ncn2c1CCC2)N1Cc2c(cc(C#Cc3ccc(CN4CCC(CO)CC4)cc3)cc2C(F)F)C1=O (configuration not stated) | 12

Target: Epidermal growth factor receptor (Homo sapiens, UniProt P00533, C797S/L858R/T790M)
Details: not given

Sequence of Epidermal growth factor receptor (Homo sapiens, UniProt P00533, C797S/L858R/T790M) (P00533 25-1210 T790M/C797S/L858R limits assumed): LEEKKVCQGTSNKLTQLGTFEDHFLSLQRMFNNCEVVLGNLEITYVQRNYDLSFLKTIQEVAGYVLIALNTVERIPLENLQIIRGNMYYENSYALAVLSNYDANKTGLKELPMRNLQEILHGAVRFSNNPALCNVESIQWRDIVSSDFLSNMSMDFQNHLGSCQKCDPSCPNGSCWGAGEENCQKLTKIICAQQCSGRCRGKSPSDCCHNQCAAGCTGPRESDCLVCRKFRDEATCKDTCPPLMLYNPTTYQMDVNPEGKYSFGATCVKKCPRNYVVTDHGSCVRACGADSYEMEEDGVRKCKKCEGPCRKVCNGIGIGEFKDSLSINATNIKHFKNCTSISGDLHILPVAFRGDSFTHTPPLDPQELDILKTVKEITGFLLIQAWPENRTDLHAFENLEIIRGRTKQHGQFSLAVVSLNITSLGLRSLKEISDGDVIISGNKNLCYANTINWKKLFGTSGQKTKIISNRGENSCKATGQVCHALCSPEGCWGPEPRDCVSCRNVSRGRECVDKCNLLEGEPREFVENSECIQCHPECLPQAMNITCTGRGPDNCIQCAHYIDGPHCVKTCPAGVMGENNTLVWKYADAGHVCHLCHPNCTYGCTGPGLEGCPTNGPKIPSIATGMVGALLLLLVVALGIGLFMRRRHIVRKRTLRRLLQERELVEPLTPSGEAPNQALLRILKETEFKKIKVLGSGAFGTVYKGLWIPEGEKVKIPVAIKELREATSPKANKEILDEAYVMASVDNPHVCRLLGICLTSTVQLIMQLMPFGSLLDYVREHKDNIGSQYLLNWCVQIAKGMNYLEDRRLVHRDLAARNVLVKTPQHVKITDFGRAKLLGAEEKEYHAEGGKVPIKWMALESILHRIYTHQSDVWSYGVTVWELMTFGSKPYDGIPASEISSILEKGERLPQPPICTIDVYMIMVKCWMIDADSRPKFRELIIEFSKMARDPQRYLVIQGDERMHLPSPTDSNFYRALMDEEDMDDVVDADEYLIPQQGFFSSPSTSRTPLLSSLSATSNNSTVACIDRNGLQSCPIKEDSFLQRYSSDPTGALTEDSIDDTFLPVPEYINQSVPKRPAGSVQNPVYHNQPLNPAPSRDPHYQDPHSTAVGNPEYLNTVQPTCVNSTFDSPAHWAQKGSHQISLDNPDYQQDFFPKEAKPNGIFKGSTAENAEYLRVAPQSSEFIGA

Compound | IC50 [nM]
Nc1ccc(C#Cc2cc(F)c3c(c2)C(=O)N(C(C(=O)Nc2nccs2)c2ncn4c2CCC4)C3)cn1 (configuration not stated) | 116
O=C(Nc1nccs1)C(c1ncn2c1CCC2)N1Cc2c(Cl)cccc2C1=O (configuration not stated) | 4
Cc1c(C#Cc2ccc(CN3CCC(CO)CC3)cc2)cc(C(F)F)c2cn(C(C(=O)Nc3nccs3)c3ncn4c3CCC4)nc12 (configuration not stated) | 3
O=C(Nc1nccs1)C(c1ncn2c1CCC2)N1Cc2c(F)cc(C#Cc3ccc(CN4CCC(O)CC4)cc3)cc2C1=O (configuration not stated) | 5
O=C(Nc1nccs1)C(c1ncn2c1CCC2)N1Cc2c(cc(C#Cc3ccc(CN4CCC(CO)CC4)cc3)cc2C(F)(F)F)C1=O (configuration not stated) | 3
CCN1CCN(c2ccc(-c3cc(F)c4cn(C(C(=O)Nc5nccs5)c5ncn6c5CCC6)nc4c3)cc2)CC1 (configuration not stated) | 7
O=C(Nc1nccs1)C(c1ncn2c1CCC2)N1Cc2ccc(C#Cc3cccnc3)cc2C1=O (configuration not stated) | 460
O=C(Nc1nccs1)C(c1ncn2c1CCC2)N1Cc2ccc(C#Cc3ccc(CN4CCCCC4)cc3)cc2C1=O (configuration not stated) | 16
CC1(C)CCc2c(C(C(=O)Nc3nccs3)N3Cc4c(cc(C#Cc5ccc(CN6CCC(CO)CC6)cc5)cc4C(F)F)C3=O)ncn21 (configuration not stated) | 4
O=C(Nc1nccs1)C(c1ncn2c1CCC2)N1Cc2c(cc(C#Cc3ccc(CN4CCC(CO)CC4)cc3)cc2C(F)F)C1=O (configuration not stated) | 4

Target: Epidermal growth factor receptor (Homo sapiens, UniProt P00533, C797S/L858R)
Details: not given

Sequence of Epidermal growth factor receptor (Homo sapiens, UniProt P00533, C797S/L858R) (P00533 25-1210 C797S/L858R limits assumed): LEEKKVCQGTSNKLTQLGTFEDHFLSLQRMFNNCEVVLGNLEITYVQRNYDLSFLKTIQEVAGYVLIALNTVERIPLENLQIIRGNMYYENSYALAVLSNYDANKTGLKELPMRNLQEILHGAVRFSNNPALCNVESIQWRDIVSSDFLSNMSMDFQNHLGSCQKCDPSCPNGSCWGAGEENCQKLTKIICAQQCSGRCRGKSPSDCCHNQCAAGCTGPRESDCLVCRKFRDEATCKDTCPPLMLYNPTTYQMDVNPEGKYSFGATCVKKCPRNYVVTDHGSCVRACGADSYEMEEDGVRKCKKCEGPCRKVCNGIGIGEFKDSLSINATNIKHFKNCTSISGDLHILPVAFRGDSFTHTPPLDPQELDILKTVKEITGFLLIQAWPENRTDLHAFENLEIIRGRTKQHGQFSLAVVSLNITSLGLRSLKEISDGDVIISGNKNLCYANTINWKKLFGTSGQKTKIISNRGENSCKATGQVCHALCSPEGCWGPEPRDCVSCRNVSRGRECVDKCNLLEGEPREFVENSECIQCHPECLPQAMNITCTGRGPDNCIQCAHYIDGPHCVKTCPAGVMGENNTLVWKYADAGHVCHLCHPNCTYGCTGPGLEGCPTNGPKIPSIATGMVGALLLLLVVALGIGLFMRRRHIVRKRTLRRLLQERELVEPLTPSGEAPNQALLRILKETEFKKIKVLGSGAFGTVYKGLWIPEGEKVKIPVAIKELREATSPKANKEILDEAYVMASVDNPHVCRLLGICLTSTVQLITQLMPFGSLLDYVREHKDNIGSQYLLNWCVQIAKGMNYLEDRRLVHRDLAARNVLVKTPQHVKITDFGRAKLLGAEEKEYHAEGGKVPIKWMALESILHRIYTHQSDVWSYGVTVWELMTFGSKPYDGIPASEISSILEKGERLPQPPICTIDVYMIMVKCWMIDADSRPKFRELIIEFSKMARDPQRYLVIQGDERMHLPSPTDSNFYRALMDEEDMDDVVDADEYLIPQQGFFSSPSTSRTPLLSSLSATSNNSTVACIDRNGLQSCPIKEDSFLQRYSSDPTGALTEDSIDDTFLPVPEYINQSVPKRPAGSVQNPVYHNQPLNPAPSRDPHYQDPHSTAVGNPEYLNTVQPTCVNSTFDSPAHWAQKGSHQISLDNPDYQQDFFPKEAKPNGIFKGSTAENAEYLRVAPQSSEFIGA

Compound | IC50 [nM]
O=C(Nc1nccs1)C(c1ncn2c1CCC2)N1Cc2c(F)cc(C#Cc3ccc(CN4CCC(CO)CC4)cc3)cc2C1=O (configuration not stated) | 12
Nc1ccc(C#Cc2cc(F)c3c(c2)C(=O)N(C(C(=O)Nc2nccs2)c2ncn4c2CCC4)C3)cn1 (configuration not stated) | 1100
O=C(Nc1nccs1)C(c1ncn2c1CCC2)n1cc2c(Cl)cc(-c3ccc(N4CCOCC4)cc3)c(Cl)c2n1 (configuration not stated) | 33
O=C(Nc1nccs1)C(c1ncn2c1CCC2)N1Cc2c(Cl)cccc2C1=O (configuration not stated) | 183
CCN1CCN(c2ccc(-c3cc(Cl)c4cn(C(C(=O)Nc5nccs5)c5ncn6c5CCC6)nc4c3Cl)cc2)CC1 (configuration not stated) | 22
O=C(Nc1nccs1)C(c1ncn2c1CCC2)N1Cc2c(F)cc(C#Cc3ccc(CN4CCC(O)CC4)cc3)cc2C1=O (configuration not stated) | 33
O=C(Nc1nccs1)C(c1ncn2c1CCC2)N1Cc2c(cc(C#Cc3ccc(CN4CCC(CO)CC4)cc3)cc2C(F)(F)F)C1=O (configuration not stated) | 26
CCN1CCN(c2ccc(-c3cc(F)c4cn(C(C(=O)Nc5nccs5)c5ncn6c5CCC6)nc4c3)cc2)CC1 (configuration not stated) | 91
O=C(Nc1nccs1)C(c1ncn2c1CCC2)N1Cc2ccc(C#Cc3cccnc3)cc2C1=O (configuration not stated) | > 10000
O=C(Nc1nccs1)C(c1ncn2c1CCC2)N1Cc2ccc(C#Cc3ccc(CN4CCCCC4)cc3)cc2C1=O (configuration not stated) | 342
CC1(C)CCc2c(C(C(=O)Nc3nccs3)N3Cc4c(cc(C#Cc5ccc(CN6CCC(CO)CC6)cc5)cc4C(F)F)C3=O)ncn21 (configuration not stated) | 12
O=C(Nc1nccs1)C(c1ncn2c1CCC2)N1Cc2c(cc(C#Cc3ccc(CN4CCC(CO)CC4)cc3)cc2C(F)F)C1=O (configuration not stated) | 13
